Results reported in US20080207738A1, “DRUG COMBINATIONS TO TREAT DRUG RESISTANT TUMORS” (priority 2007, published 2008).

Columns and labels:
parent L5178 cells = test: Rhodamine 123 cellular content in parent L5178 cells (flow cytometry); assay type: cell-based, mouse; conditions: data not shown
Procedure: The L5178 mouse T cell lymphoma parent cell line and its MDR1 expressing subline (L5178/MDR1) were used. […] The cells were adjusted to a concentration of 2×10^6 cells per ml, then resuspended in serum-free McCoy's 5A medium and 0.5-ml portions distributed into small (1.2-ml) Eppendorf centrifuge tubes. After adding various concentrations of test compounds as listed below in Table 2, the samples were incubated for 10 min at room temperature (22° C.). […] After centrifugation (450 g, 10 min) the pelleted cells were washed twice with PBS and resuspended in 0.5-ml of PBS for cytometry. The fluorescence intensity of the cell population was measured by flow cytometry using Beckton Dickinson's FACScan instrument.
The percentage mean fluorescence intensity (FL-1) was calculated for the treated parental and MDR1 cell lines as compared with that of untreated cells. […] Other values measured are Forward scattered count (FSC) and site scattered count (SSC).

Solubility in water = assay type: physicochemical
Excerpt: In one embodiment, CCcompound104, CCcompound26 and EA may be administered orally. The two CC compounds are water-soluble, while EA is first dissolved in absolute ethanol and diluted in water or a suitable physiologically compatible liquid solvent. In one embodiment of the invention, the CC compounds and EA are in the form of a tablet, gel capsule, a liquid, or the like. In each case, the compounds are mixed with one or more carriers chosen by one having ordinary skill in the art to best suit the goal of treatment. In addition to the active compounds, the tablet or gel may contain any component that is presently used in the pharmaceutical field to ensure firmness, stability, solubility and appropriate taste. Any additional component of the tablet or gel will be chemically inert; i.e., it will not participate in a chemical reaction with the active compounds or the other additives. Each compound may be prepared for oral consumption separately, or the tablet, gel capsule or liquid may contain any of the two components or all three components. Tablets containing 25 mg or 50 mg of EA can be purchased from Merck.

solubility in water (Solubility in water): water-soluble
Structure (SMILES): C[Si](C)(C)COc1ccc(C(=O)OCCN2CCN(CCCOC(=O)C3c4ccccc4Oc4ccccc43)CC2)cc1.Cl.Cl [CCcompound104]
effect on the cellular content of Rhodamine 123 (parent L5178 cells): no detectable effects
